Measurements published in patent US20170037028A1 (BAYER PHARMA AKTIENGESELLSCHAFT, priority 2013, published 2017).

What follows are compounds tested against T1, GLUT1 (Homo sapiens, UniProt P11166) (assay: Indirect measurement of GLUT1 activity by quantification of intracellular ATP levels (glucose induced ATP increase)). Conditions: read-out: IC50 regarding glucose induced ATP increase (GLUT1 inhibition).
T1 sequence (P11166 1-492): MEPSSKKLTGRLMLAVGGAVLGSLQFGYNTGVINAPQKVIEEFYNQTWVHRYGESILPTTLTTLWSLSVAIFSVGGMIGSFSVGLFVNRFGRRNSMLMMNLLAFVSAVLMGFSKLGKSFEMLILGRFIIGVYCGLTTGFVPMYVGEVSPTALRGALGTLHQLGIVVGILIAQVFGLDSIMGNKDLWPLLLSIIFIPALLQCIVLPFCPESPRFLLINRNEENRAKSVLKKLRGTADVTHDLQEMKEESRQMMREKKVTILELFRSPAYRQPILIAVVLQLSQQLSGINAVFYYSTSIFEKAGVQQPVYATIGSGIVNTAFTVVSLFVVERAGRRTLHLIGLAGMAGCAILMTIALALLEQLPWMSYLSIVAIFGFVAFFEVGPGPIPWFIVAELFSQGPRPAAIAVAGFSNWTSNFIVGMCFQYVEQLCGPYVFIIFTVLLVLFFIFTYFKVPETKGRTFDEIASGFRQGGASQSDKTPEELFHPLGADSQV
Type: cell-based
Design: endogenous in cells; host or cells: DLD1 or CHO-K1
In short: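 Intracellular ATP was measured by CellTiter-Glo luminescence as an indirect readout of transport: glucose-driven for GLUT1, fructose-driven for GLUT2. DLD1 or CHO-K1 cells were used alongside an oxidative phosphorylation inhibitor. Beforehand, cells were held overnight in glucose-free 1% FCS medium to deplete ATP.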

Structure (SMILES) | IC50 [nM]
COc1cc(Cn2nc(C)c(NC(=O)c3cc(C)nc4ccc(C)cc34)c2C)cc(OC)c1 [Example 1293] | 7790
Cc1nn(Cc2ccc(F)cc2)c(C)c1NC(=O)c1cc(Br)nc2ccccc12 [Example 36, 2-bromo-N-[1-(4-fluorobenzyl)-3,5-dimethyl-1H-pyrazol-4-yl]quinoline-4-carboxamide] | 88.9
Cc1nn(C(C)CCc2ccc(F)cc2)c(C)c1NC(=O)c1cc(C(F)(F)F)nc2ccc(Br)cc12 (racemic) [Example 1378] | 643
CNC(=O)CCNC(=O)c1ccc(Cn2nc(C)c(NC(=O)c3cc(C(F)(F)F)nc4ccc(Br)cc34)c2C)cc1 [Example 1157] | 150
Cc1nn(Cc2ccc(C(=O)N3CCC(O)CC3)cc2)c(C)c1NC(=O)c1cc(C(F)(F)F)nc2ccc(Br)cc12 [Example 1217] | 676
COc1ccccc1Cn1nc(C(F)(F)F)c(NC(=O)c2cc(C(N)=O)nc3cc(F)ccc23)c1C [Example 1588] | 175
Cc1nn(Cc2ccc(F)c(F)c2)c(C)c1NC(=O)c1cc(C(F)(F)F)nc2cc(Br)ccc12 [Example 189, 7-bromo-N-[1-(3,4-difluorobenzyl)-3,5-dimethyl-1H-pyrazol-4-yl]-2-(trifluoromethyl)quinoline-4-carboxamide] | 165
CCc1nn(Cc2ccc(C#N)cc2)c(CC)c1NC(=O)c1cc(C(N)=O)nc2ccccc12 [Example 310, N^4-[1-(4-cyanobenzyl)-3,5-diethyl-1H-pyrazol-4-yl]quinoline-2,4-dicarboxamide] | 47.2
CC(=O)c1cccc(Cn2nc(C)c(NC(=O)c3cc(C(N)=O)nc4cc(F)ccc34)c2C)c1 [Example 1625] | 40.9
COc1ccccc1CNC(=O)c1ccc(Cn2nc(C)c(NC(=O)c3cc(C(F)(F)F)nc4ccc(Br)cc34)c2C)cc1 [Example 1183] | 241
Cc1c(NC(=O)c2cc(C(N)=O)nc3cc(F)ccc23)c(C(F)(F)F)nn1C(C)c1ccccc1 (single isomer, unassigned) [Example 336, (S or R)-7-fluoro-N^4-[5-methyl-1-(1-phenylethyl)-3-(trifluoromethyl)-1H-pyrazol-4-yl]quinoline-2,4-dicarboxamide] | 150
Cc1c(NC(=O)c2cc(C(F)(F)F)nc3ccc(Br)cc23)c(C(=O)O)nn1Cc1ccc(F)cc1 [Example 1271] | 3060
Cc1c(NC(=O)c2cc(C(=O)NCCCO)nc3cc(F)ccc23)c(C(F)(F)F)nn1Cc1ccc(C#N)cc1 [Example 341, N^4-[1-(4-cyanobenzyl)-5-methyl-3-(trifluoromethyl)-1H-pyrazol-4-yl]-7-fluoro-N^2-(3-hydroxypropyl)quinoline-2,4-dicarboxamide] | 290
Cc1nn(Cc2ncco2)c(C)c1NC(=O)c1cc(C(N)=O)nc2ccccc12 [Example 1504] | 42.4
Cc1c(NC(=O)c2cc(C(N)=O)nc3ccccc23)c(C(F)(F)F)nn1Cc1cc(C(C)C)no1 [Example 1552] | 194
Cc1ccc2nc(C)cc(C(=O)Nc3c(C)nn(Cc4ccc(F)c(F)c4)c3C)c2c1 [Example 64, N-[1-(3,4-difluorobenzyl)-3,5-dimethyl-1H-pyrazol-4-yl]-2,6-dimethylquinoline-4-carboxamide] | 130

Further compounds by falling IC50, results first:

IC50 [nM] | Structure (SMILES)
40 | Cc1nn(Cc2ccc(F)cc2)c(C)c1NC(=O)c1cc(C2CC2)nc2cccc(F)c12 [Example 46, 2-cyclopropyl-5-fluoro-N-[1-(4-fluorobenzyl)-3,5-dimethyl-1H-pyrazol-4-yl]quinoline-4-carboxamide]
36.7 | CCc1nn(Cc2ccc(F)cc2)c(CC)c1NC(=O)c1cc(C(N)=O)nc2ccccc12 [Example 1387]
35.1 | COc1cc(C(=O)Nc2c(C)nn(Cc3ccc(C#N)cc3F)c2C)c2ccccc2n1 [Example 1352]
34.1 | COc1cc(C(=O)Nc2c(C#N)nn(Cc3ccc(F)cc3)c2C)c2ccccc2n1 [Example 1418]
26.9 | Cc1c(NC(=O)c2cc(C(N)=O)nc3cccc(F)c23)c(C(F)(F)F)nn1Cc1cccc(C#N)c1 [Example 1581]
21.6 | Cc1nn(C(C)c2ccccc2)c(C)c1NC(=O)c1cc(C(F)(F)F)nc2ccc(Br)cc12 (racemic) [Example 1360]
21 | Cc1nn(CC2CCN(S(C)(=O)=O)CC2)c(C)c1NC(=O)c1cc(C(F)(F)F)nc2ccc(Br)cc12 [Example 1072]
19.8 | Cc1nn(Cc2ccc(C(=O)Nc3ccc(N(C)C)cc3)cc2)c(C)c1NC(=O)c1cc(C(F)(F)F)nc2ccc(Br)cc12 [Example 1069]
18.4 | CCc1cc(Cn2nc(C(F)(F)F)c(NC(=O)c3cc(C(N)=O)nc4ccccc34)c2C)on1 [Example 1555]
15.1 | COc1cc(C(=O)Nc2c(C)nn(C(C)c3ccc(F)cc3)c2C)c2ccccc2n1 (centres unmarked) [Example 1375]
14 | Cc1nn(Cc2ccc(C#N)nc2)c(C)c1NC(=O)c1cc(C(N)=O)nc2ccccc12 [Example 225, N^4-{1-[(6-cyanopyridin-3-yl)methyl]-3,5-dimethyl-1H-pyrazol-4-yl}quinoline-2,4-dicarboxamide]
12.5 | Cc1c(NC(=O)c2cc(C(N)=O)nc3cccc(F)c23)c(C(F)(F)F)nn1Cc1ccc(F)cc1C#N [Example 1656]
11.8 | Cc1nn(Cc2ccc(C(=O)NCCCO)cc2)c(C)c1NC(=O)c1cc(C(F)(F)F)nc2ccc(Br)cc12 [Example 1051]
10.6 | COc1ccc(CCn2nc(C)c(NC(=O)c3cc(C(N)=O)nc4cc(F)c(Cl)cc34)c2C)cc1 [Example 1346]
8.8 | COc1cccc(Cn2nc(C)c(NC(=O)c3cc(C(N)=O)nc4ccccc34)c2C)c1 [Example 1452]
8.3 | COC(=O)c1ccc(Cn2nc(C)c(NC(=O)c3cc(C(F)(F)F)nc4ccc(Br)cc34)c2C)cc1 [Example 131, methyl 4-{[4-({[6-bromo-2-(trifluoromethyl)quinolin-4-yl]carbonyl}amino)-3,5-dimethyl-1H-pyrazol-1-yl]methyl}benzoate]
6.2 | Cc1nn(Cc2ccc(F)cc2)c(C)c1NC(=O)c1cc(C(F)(F)F)nc2ccc(Br)cc12 [Example 9, 6-bromo-N-[1-(4-fluorobenzyl)-3,5-dimethyl-1H-pyrazol-4-yl]-2-(trifluoromethyl)quinoline-4-carboxamide]
6.1 | Cc1nn(CCCc2ccc(C#N)cc2)c(C)c1NC(=O)c1cc(C(F)(F)F)nc2ccc(Br)cc12 [Example 348, 6-bromo-N-{1-[3-(4-cyanophenyl)propyl]-3,5-dimethyl-1H-pyrazol-4-yl}-2-(trifluoromethyl)quinoline-4-carboxamide]
5.7 | COc1ccc(Cn2nc(C)c(NC(=O)c3cc(C(F)(F)F)nc4ccc(Br)cc34)c2C)cc1F [Example 1039]
1.6 | Cc1nn(Cc2ccc(C#N)cn2)c(C)c1NC(=O)c1cc(C(N)=O)nc2cc(F)c(Cl)cc12 [Example 351, 6-chloro-N^4-{1-[(5-cyanopyridin-2-yl)methyl]-3,5-dimethyl-1H-pyrazol-4-yl}-7-fluoroquinoline-2,4-dicarboxamide]
1 | CC(C)c1nn(Cc2ccc(C#N)cc2)c(C(F)(F)F)c1NC(=O)c1cc(C(N)=O)nc2ccccc12 [Example 319, N^4-[1-(4-cyanobenzyl)-3-isopropyl-5-(trifluoromethyl)-1H-pyrazol-4-yl]quinoline-2,4-dicarboxamide]
0.8 | CC(=O)c1cccc(Cn2nc(C)c(NC(=O)c3cc(C(N)=O)nc4cc(F)c(Cl)cc34)c2C)c1 [Example 1623]
